Test results: patent US5616684A, “Cyclic peptides and use thereof” (priority 1991, dated 1997)
Like-named read-outs stand apart in the source and are kept apart here. One block for each compound: values may come before it.

Assays:
[1] = amide bond
[2] = target: T1, endothelin receptor A (ETA) (Sus scrofa, UniProt Q29010); assay: Assay of Affinity for Receptor (1): Binding Activity on ETA Receptor; set-up: key to Binding Activity on ET Receptor (R. act.) ETA: relative binding activity; reference cyclic pentapeptide = 1.0; conditions: specific activity, binding activity of cyclo[-D-Glu-Ala-D-aIle-Leu-D-Trp-] taken as 1.0; porcine heart membrane fraction, 125I-labeled endothelin-1, 25° C., 1 hour
T1 construct: A membrane fraction prepared from the porcine heart; from tissue; host or cells: porcine heart membrane fraction
T1 sequence (Q29010 21-427): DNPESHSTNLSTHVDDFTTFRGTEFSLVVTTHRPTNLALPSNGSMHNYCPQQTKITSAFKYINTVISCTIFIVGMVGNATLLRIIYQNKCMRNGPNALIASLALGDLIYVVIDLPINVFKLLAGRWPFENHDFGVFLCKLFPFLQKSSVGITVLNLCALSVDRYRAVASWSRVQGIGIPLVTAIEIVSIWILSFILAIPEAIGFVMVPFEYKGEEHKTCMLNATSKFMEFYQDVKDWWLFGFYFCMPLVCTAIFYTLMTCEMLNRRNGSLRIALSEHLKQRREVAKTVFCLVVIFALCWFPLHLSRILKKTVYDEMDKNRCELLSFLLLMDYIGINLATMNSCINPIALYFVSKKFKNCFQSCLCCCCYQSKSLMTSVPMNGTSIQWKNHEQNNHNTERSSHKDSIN
Experimental: Assay of Affinity for Receptor (1) . . . Binding Activity on ETA Receptor
A membrane fraction prepared from the porcine heart was diluted to 0.15 mg/ml by using a buffer solution for assay, and 100 μl of the resulting suspension of the membrane fraction was poured into each assay tube to use for assay. To this suspension of the membrane fraction was added 2 μl of 5 nM ^125 I-labeled endothelin-1 solution. Further, 3 μl of a test peptide solution was added thereto, followed by incubation at a temperature of 25° C. for 1 hour. Then, the resulting suspension was diluted with 900 μl of the buffer solution for assay cooled with ice, and thereafter separated into a supernatant and a precipitate by centrifugation at 12,000×g for 10 minutes. Cell membranes and an endothelin receptor A (ETA) embedded therein were contained in the precipitate, and radioactive iodine-labeled endothelin combined with the receptor was also recovered in the precipitate. Accordingly, the amount of radioactive iodine-labeled endothelin combined with the endothelin receptor A (ETA) was determined by measuring the amount of radioactive iodine contained in the precipitate with a gamma-ray counter. The cyclic pentapeptide described in Japanese Patent Application No. 2-413828/1990, cyclo[-D-Glu-Ala-D-aIle-Leu-D-Trp-], was used as a control compound. The numerical value of ETA shown in Table 1 is the value of specific activity, taking the binding activity of this cyclic pentapeptide on the receptor A as 1.0. The binding activity (IC50) of this cyclic pentapeptide on the ETA receptor is 2×10^-6 M.

[3] = test system: ETB receptor (guinea pig kidney crude receptor membrane fraction); assay: ETB Radio Receptor Assay *2; assay type: binding; conditions: relative activity (Example 8 given as 100), 125I-endothelin-1, 37° C., 90 minutes
Experimental: ETB Radio Receptor Assay *2
In the endothelin radio receptor assay, guinea pigs' kidneys were used. Guinea pigs (Std Hartrey, male 250 g, Japan SLC Ltd.) were made to have a cerebral concussion and sacrificed by bleeding from carotid arteries to pick up the kidneys and removed fat therefrom to prepare the kidneys. The obtained kidneys were sliced and homogenized by politron homogenizer in 20 ml of 50 mM Tris-HCl buffer [pH 7.4; 20 mM NaHCO3, 0.1 mM PMSF (Phenylmethylsulfonyl Fluoride), 1 mM EDTA (Ethylenediaminetetraacetic acid)] per one kidney. The homogenized kidney was applied to a centrifugation at 1,000×g for 15 minutes and the supernatant was further applied to a centrifugation for 20 minutes at 30,000×g. The resulting precipitate was twice washed with 50 mM Tris-HCl buffer (pH 7.4) containing 0.1 mM PMSF, 1 mM EDTA. The resultant was stored at -80 ° C. as a crude receptor membrane fraction and was used as the suspension in the following buffer when necessary.
740 Bq of ^125 I-endothelin-1 (81.4 TBq/mmol, Du Pont, USA) as a radio ligand, the crude membrane fraction (2.1 μg protein) and samples were added to the following buffer. The reaction was performed at 37° C., for 90 minutes in 0.2 ml of the buffer [50 mM Tris-HCl buffer (pH 7.4) containing 0.1 mM PMSF, 1 mM EDTA, 0.2% bovine serum albumin].
The reaction was stopped by fast filtration on a glass filter (GF/B, Wattman, USA) by Cell Harvestor (290 PHD, Cambridge-Technology, Great Britain), and the filter was three times washed with 50 mM Tris-HCl buffer (pH 7.4). Radio activity remained on the filter was assayed by a gamma counter.

Compound: CC(C)C[C@@H]1NC(=O)[C@@H](c2cccs2)NC(=O)[C@H](CC(=O)OCc2ccccc2)NC(=O)[C@H](CC(=O)NCCc2c[nH]c3ccccc23)NC(=O)[C@@H](CC(=O)OCc2ccccc2)NC(=O)[C@@H](Cc2c[nH]c3ccccc23)NC1=O
ring closure, yield of all isomers ([1]; from CC(C)C[C@H](NC(=O)[C@H](NC(=O)[C@H](CC(=O)OCc1ccccc1)NC(=O)[C@H](CC(=O)NCCc1c[nH]c2ccccc12)NC(=O)[C@@H](CC(=O)OCc1ccccc1)NC(=O)[C@@H](Cc1c[nH]c2ccccc12)NC(=O)OC(C)(C)C)c1cccs1)C(=O)O, HONB/DCC (active ester), then diisopropylethylamine, DMF, 4.75 mM, 3 steps): 90.4%

Binding Activity on ET Receptor (R. act.) ETA [2]: 110 | Binding Activity on ET Receptor (R. act.) ET8 *2 [3]: 330
Compound: CC(C)C[C@@H]1NC(=O)[C@@H](CC(C)C)NC(=O)[C@H](CC(=O)O)NC(=O)[C@H](Cc2c[nH]c3ccccc23)NC(=O)[C@@H](CC(=O)O)NC(=O)[C@@H](Cc2cn(C)c3ccccc23)NC1=O [Example 95, Cyclo[--D--Asp--Trp--Asp--D--Leu--Leu--D--Trp(Me)--]]

Compound: CC(C)C[C@@H]1NC(=O)[C@@H](CC(C)C)NC(=O)[C@H](CC(=O)OCc2ccccc2)NC(=O)[C@@H]2C[C@@H](OCc3ccccc3)CN2C(=O)[C@@H](CC(=O)OCc2ccccc2)NC(=O)[C@@H](Cc2c[nH]c3ccccc23)NC1=O [cyclo[-D-Asp(OBzl)-Hyp(Bzl)-Asp(OBzl)-D-Leu-Leu-D-Trp-]]
ring closure, yield of all isomers ([1]; from CC(C)C[C@H](NC(=O)[C@@H](CC(C)C)NC(=O)[C@H](CC(=O)OCc1ccccc1)NC(=O)[C@@H]1C[C@@H](OCc2ccccc2)CN1C(=O)[C@@H](CC(=O)OCc1ccccc1)NC(=O)[C@@H](Cc1c[nH]c2ccccc12)NC(=O)OC(C)(C)C)C(=O)O, HONB/DCC (active ester), then TEA, DMF, 9.5 mM, 16.0 h, 3 steps): 82.6%

Compound: CC(C)C[C@@H]1NC(=O)[C@@H](CC(C)C)NC(=O)[C@H](CC(=O)O)NC(=O)[C@H](C)NC(=O)[C@@H](CC(=O)O)NC(=O)[C@@H](Cc2c[nH]c3ccccc23)NC1=O [cyclo[-D-Asp-Ala-Asp-D-Leu-Leu-D-Trp-]]
ring closure, yield of all isomers ([1]; from CC(C)C[C@H](NC(=O)[C@@H](CC(C)C)NC(=O)[C@H](CC(=O)OCc1ccccc1)NC(=O)[C@H](C)NC(=O)[C@@H](CC(=O)OCc1ccccc1)NC(=O)[C@@H](Cc1c[nH]c2ccccc12)NC(=O)OC(C)(C)C)C(=O)O, HONB/DCC (active ester), TEA, DMF, 5.0 mM, 4 steps): 18.2%

Compound: CC(C)C[C@@H]1NC(=O)[C@@H](CC(C)C)NC(=O)[C@@H](CC(=O)O)NC(=O)[C@H](C)NC(=O)[C@@H](CC(=O)O)NC(=O)[C@@H](Cc2c[nH]c3ccccc23)NC1=O [cyclo[-D-Asp-Ala-D-Asp-D-Leu-Leu-D-Trp-]]
ring closure, yield of all isomers ([1]; from CC(C)C[C@H](NC(=O)[C@@H](CC(C)C)NC(=O)[C@@H](CC(=O)OCc1ccccc1)NC(=O)[C@H](C)NC(=O)[C@@H](CC(=O)OCc1ccccc1)NC(=O)[C@@H](Cc1c[nH]c2ccccc12)NC(=O)OC(C)(C)C)C(=O)O, HONB/DCC (active ester), TEA, DMF, 5.0 mM, 4 steps): 15.3%

Compound: CC(C)C[C@@H]1NC(=O)[C@@H](CC(C)C)NC(=O)[C@@H](CCC(=O)O)NC(=O)[C@H](C)NC(=O)[C@@H](CC(=O)O)NC(=O)[C@@H](Cc2c[nH]c3ccccc23)NC1=O [cyclo[-D-Asp-Ala-D-Glu-D-Leu-Leu-D-Trp-]]
ring closure, yield of all isomers ([1]; from CC(C)C[C@H](NC(=O)[C@@H](CC(C)C)NC(=O)[C@@H](CCC(=O)OCc1ccccc1)NC(=O)[C@H](C)NC(=O)[C@@H](CC(=O)OCc1ccccc1)NC(=O)[C@@H](Cc1c[nH]c2ccccc12)NC(=O)OC(C)(C)C)C(=O)O, HONB/DCC (active ester), TEA, DMF, 4.97 mM, 16.0 h, 4 steps): 10.8%

Compound: CC(C)C[C@@H]1NC(=O)[C@@H](CC(C)C)NC(=O)[C@H](CCC(=O)O)NC(=O)[C@H](C)NC(=O)[C@@H](CC(=O)O)NC(=O)[C@@H](Cc2c[nH]c3ccccc23)NC1=O [cyclo[-D-Asp-Ala-Glu-D-Leu-Leu-D-Trp-]]
ring closure, yield of all isomers ([1]; from CC(C)C[C@H](NC(=O)[C@@H](CC(C)C)NC(=O)[C@H](CCC(=O)OCc1ccccc1)NC(=O)[C@H](C)NC(=O)[C@@H](CC(=O)OCc1ccccc1)NC(=O)[C@@H](Cc1c[nH]c2ccccc12)NC(=O)OC(C)(C)C)C(=O)O, HONB/DCC (active ester), TEA, DMF, 4.97 mM, 16.0 h, 4 steps): 24.1%

Compound: CC(C)C[C@@H]1NC(=O)[C@@H](CC(C)C)NC(=O)[C@H](CC(=O)O)NC(=O)[C@H](CC(=O)NCCc2c[nH]c3ccccc23)NC(=O)[C@@H](CC(=O)O)NC(=O)[C@@H](Cc2c[nH]c3ccccc23)NC1=O [cyclo[-D-Asp-Asn(CH2 CH2 -Ind)-Asp-D-Leu-Leu-D-Trp-]]
ring closure, yield of all isomers ([1]; from CC(C)C[C@H](NC(=O)[C@@H](CC(C)C)NC(=O)[C@H](CC(=O)OCc1ccccc1)NC(=O)[C@H](CC(=O)NCCc1c[nH]c2ccccc12)NC(=O)[C@@H](CC(=O)OCc1ccccc1)NC(=O)[C@@H](Cc1c[nH]c2ccccc12)NC(=O)OC(C)(C)C)C(=O)O, 4 steps): 19.4%

Compound: CC(C)C[C@@H]1NC(=O)[C@@H](c2cccs2)NC(=O)[C@H](CC(=O)O)NC(=O)[C@H](CC(=O)NCCc2c[nH]c3ccccc23)NC(=O)[C@@H](CC(=O)O)NC(=O)[C@@H](Cc2c[nH]c3ccccc23)NC1=O [cyclo[-D-Asp-Asn(CH2 CH2 -Ind)-Asp-D-Thg(2)-Leu-D-Trp-]]
ring closure, yield of all isomers ([1]; from CC(C)C[C@H](NC(=O)[C@H](NC(=O)OC(C)(C)C)c1cccs1)C(=O)N[C@H](Cc1c[nH]c2ccccc12)C(=O)N[C@H](CC(=O)OCc1ccccc1)C(=O)N[C@@H](CC(=O)NCCc1c[nH]c2ccccc12)C(=O)N[C@@H](CC(=O)OCc1ccccc1)C(=O)O, 4 steps): 9.5%

Compound: CC(C)C[C@@H]1NC(=O)[C@@H](CC(C)C)NC(=O)[C@H](CC(=O)O)NC(=O)[C@H](CC(=O)NCCc2ccccc2)NC(=O)[C@@H](CC(=O)O)NC(=O)[C@@H](Cc2c[nH]c3ccccc23)NC1=O [cyclo[-D-Asp-Asn(CH2 CH2 Ph)-Asp-D-Leu-Leu-D-Trp-]]
ring closure, yield of all isomers ([1]; from CC(C)C[C@H](NC(=O)[C@@H](CC(C)C)NC(=O)[C@H](CC(=O)OCc1ccccc1)NC(=O)[C@H](CC(=O)NCCc1ccccc1)NC(=O)[C@@H](CC(=O)OCc1ccccc1)NC(=O)[C@@H](Cc1c[nH]c2ccccc12)NC(=O)OC(C)(C)C)C(=O)O, HONB/DCC (ONB active ester), then TEA, DMF, 3.46 mM, 16.0 h, 4 steps): 24.1%

Compound: CC(C)C[C@@H]1NC(=O)[C@@H](CC(C)C)NC(=O)[C@H](CC(=O)O)NC(=O)[C@H](CC(=O)NCc2ccccc2)NC(=O)[C@@H](CC(=O)O)NC(=O)[C@@H](Cc2c[nH]c3ccccc23)NC1=O [cyclo[-D-Asp-Asn(CH2 Ph)-Asp-D-Leu-Leu-D-Trp-]]
ring closure, yield of all isomers ([1]; from CC(C)C[C@H](NC(=O)[C@@H](CC(C)C)NC(=O)[C@H](CC(=O)OCc1ccccc1)NC(=O)[C@H](CC(=O)NCc1ccccc1)NC(=O)[C@@H](CC(=O)OCc1ccccc1)NC(=O)[C@@H](Cc1c[nH]c2ccccc12)NC(=O)OC(C)(C)C)C(=O)O, HONB/DCC (ONB active ester), TEA, DMF, 3.46 mM, 16.0 h, 4 steps): 23.8%

Binding Activity on ET Receptor (R. act.) ETA [2]: 38 | Binding Activity on ET Receptor (R. act.) ET8 *2 [3]: 240
Compound: Cyclo[--D--Asp--D,L-Tic--Asp--D--Leu--Leu--D--Trp--] [Example 86]
